Test results taken from ChEMBL document CHEMBL1201862, “PubChem BioAssay data set” (2004).
Calls of active or inactive are those of the source.

Columns and labels:
[1] = cytotoxicity in MITF-independent A375 cells – cell-based, CellTiter-Glo luminescence, dry powder, set 4, counter-screen for MITF inhibitor project, dose response (AID 624364); format: functional; conditions: A-375;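 further: A375 melanoma cells are MITF independent so this is a counter screen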
[2] = viability loss in MITF-independent A375 cells – cell-based, CellTiter-Glo luminescence, dry powder, set 2, counter-screen for MITF inhibitor project, dose response (AID 624489); format: functional; conditions: A-375;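 further: actives are compounds lowering A375 viability meaning general cytotoxicity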
[3] = biological target: T1, Corticotropin-releasing factor receptor 2/Corticotropin-releasing factor-binding protein (Homo sapiens, UniProt P24387+Q13324); test: activators of CRF receptor 2 with binding protein – uHTS hits, confirmation (AID 602473); format: functional; conditions: read-out: EC50_Mean
T1 sequence (Q13324 whole entry): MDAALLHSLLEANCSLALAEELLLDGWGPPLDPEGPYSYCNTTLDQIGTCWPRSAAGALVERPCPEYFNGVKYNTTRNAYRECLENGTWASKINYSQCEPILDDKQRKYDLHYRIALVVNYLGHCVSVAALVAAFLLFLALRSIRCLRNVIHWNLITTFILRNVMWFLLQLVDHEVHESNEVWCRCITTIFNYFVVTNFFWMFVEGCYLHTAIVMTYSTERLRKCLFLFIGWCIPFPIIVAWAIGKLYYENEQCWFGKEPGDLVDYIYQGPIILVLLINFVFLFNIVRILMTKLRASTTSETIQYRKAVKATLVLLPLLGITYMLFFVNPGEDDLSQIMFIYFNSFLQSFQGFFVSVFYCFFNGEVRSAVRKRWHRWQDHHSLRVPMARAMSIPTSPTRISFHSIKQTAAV
T1 sequence (P24387 whole entry): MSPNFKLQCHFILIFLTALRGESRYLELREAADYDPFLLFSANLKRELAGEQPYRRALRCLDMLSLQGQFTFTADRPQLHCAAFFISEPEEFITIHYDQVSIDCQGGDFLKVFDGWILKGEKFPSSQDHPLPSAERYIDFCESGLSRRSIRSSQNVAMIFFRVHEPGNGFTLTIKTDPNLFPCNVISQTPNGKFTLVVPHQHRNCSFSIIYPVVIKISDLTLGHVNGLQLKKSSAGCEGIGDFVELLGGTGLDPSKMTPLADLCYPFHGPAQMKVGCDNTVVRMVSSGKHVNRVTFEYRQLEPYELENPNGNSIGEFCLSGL

[4] = biological target: T2, Histone-lysine N-methyltransferase NSD2 (Homo sapiens, UniProt O96028); format: biochemical
T2 sequence (O96028 whole entry): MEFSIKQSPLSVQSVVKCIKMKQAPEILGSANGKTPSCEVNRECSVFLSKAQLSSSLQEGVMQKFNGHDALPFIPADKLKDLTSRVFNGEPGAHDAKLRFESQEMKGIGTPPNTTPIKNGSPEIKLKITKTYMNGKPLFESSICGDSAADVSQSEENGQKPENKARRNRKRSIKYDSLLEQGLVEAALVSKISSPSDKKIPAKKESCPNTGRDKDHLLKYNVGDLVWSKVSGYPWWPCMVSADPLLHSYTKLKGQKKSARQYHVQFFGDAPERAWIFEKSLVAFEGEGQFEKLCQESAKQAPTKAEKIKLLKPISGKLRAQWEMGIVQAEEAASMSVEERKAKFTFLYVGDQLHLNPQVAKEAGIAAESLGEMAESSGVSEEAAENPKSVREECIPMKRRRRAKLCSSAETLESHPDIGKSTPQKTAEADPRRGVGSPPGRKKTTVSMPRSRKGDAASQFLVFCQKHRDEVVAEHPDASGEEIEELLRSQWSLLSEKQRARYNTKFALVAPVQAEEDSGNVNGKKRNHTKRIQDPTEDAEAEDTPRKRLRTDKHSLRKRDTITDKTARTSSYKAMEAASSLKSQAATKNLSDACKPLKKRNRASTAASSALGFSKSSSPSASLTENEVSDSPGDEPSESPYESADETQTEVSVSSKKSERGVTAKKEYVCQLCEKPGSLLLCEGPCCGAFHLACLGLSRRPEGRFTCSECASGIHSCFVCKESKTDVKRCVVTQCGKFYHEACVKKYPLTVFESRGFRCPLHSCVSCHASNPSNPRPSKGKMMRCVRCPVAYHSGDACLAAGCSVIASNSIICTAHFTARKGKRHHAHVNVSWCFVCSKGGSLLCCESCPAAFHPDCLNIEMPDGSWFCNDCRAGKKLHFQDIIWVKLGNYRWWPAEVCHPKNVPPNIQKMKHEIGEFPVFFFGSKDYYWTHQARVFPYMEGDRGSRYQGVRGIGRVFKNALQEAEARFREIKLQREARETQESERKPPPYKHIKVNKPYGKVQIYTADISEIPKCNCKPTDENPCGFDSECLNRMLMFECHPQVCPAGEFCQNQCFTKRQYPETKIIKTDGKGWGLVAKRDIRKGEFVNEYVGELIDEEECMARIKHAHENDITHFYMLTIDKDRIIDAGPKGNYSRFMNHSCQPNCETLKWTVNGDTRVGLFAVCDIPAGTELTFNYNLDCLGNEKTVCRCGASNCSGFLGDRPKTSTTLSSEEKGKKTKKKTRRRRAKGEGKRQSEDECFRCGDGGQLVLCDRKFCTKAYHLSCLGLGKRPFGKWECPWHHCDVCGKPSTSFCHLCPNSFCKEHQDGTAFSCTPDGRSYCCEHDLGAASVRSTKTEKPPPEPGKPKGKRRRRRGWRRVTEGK

[5] = biological target: Mitochondrial peptide methionine sulfoxide reductase (Bos taurus, UniProt P54149); test: Absorbance-based biochemical high throughput dose response assay for activators of Methionine sulfoxide reductase A (MsrA).; format: functional
[6] = biological target: T3, Caspase-6 (Homo sapiens, UniProt P55212); test: inhibition of CASP6 peptide cleavage – biochemical, VEID-R110 fluorescence, cherry-pick, dose response (AID 720632)
T3 sequence (P55212 whole entry): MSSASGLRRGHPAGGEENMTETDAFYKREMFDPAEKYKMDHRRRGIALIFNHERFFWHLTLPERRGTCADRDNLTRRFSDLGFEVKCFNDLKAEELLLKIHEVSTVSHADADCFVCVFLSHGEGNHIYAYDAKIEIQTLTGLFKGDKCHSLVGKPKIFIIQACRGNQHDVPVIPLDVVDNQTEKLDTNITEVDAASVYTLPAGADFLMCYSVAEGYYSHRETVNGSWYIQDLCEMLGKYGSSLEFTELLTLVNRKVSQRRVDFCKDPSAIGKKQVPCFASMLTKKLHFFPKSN

[7] = biological target: T4, Caspase-7 (Homo sapiens, UniProt P55210); test: caspase-7 enzyme inhibition, selectivity check – biochemical, DEVD-R110 fluorescence, cherry-pick, selectivity assay for caspase-6 inhibitor project, dose response (AID 743295); format: functional
T4 sequence (P55210 whole entry): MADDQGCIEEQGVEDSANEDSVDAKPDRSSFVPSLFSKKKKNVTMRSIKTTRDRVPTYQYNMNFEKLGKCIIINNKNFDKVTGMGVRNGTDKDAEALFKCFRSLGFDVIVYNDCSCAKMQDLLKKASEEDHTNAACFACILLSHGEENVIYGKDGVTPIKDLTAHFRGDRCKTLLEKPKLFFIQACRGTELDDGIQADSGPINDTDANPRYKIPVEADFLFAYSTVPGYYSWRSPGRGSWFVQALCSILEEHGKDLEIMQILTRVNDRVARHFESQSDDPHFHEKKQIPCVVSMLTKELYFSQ

[8] = viability loss in HEK293 kidney cells – cell-based, cherry-picks, set 5, cytotoxicity control, dose response (AID 1053117); format: functional
[9] = OVCAR-3 cell viability loss – plate reader, dry powder samples, PAX8 inhibitor project, dose response (AID 743044); format: functional, cell-based
[10] = OVCAR8 cell viability loss – plate reader, dry powder samples, PAX8 project, dose response (AID 743197); format: functional, cell-based; conditions: OVCAR-8
[11] = A2780 cell killing – plate reader, dry powder samples, cytotoxicity control, dose response (AID 743046); format: functional, cell-based
[12] = biological target: Paired box protein Pax-8 (Homo sapiens, UniProt Q06710); test: PAX8 transcriptional activity inhibition in RMG-I – RMG-I cells, luciferase, cherry-pick, dose response (AID 687027); format: functional, cell-based;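 further: luciferase reporter driven by Pax8 target thyroperoxidase promoter measured by SteadyGlo luminescence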
[13] = cells
[14] = biological target: T5, Estrogen receptor beta (Homo sapiens, UniProt Q92731); test: blockers of SRC-3 recruitment to ERβ – biochemical, ELISA, streptavidin-HRP readout, orthogonal assay, confirmation (AID 1060)
[15] = biological target: T5, Estrogen receptor beta
[16] = biological target: Major prion protein (Homo sapiens, UniProt P04156); format: functional, cell-based
[17] = HCT116 cell viability decrease, GSK3B pretreatment – CellTiter-Glo, IC50, dose response (AID 1117339); format: functional; conditions: HCT-116
[18] = rise of 2N DNA cells, HeLa – IC50, dose response (AID 1117349); format: functional, cell-based
[19] = cytotoxicity toward Colo320 cells – cell-based, CellTiter-Glo luminescence, IC50, dose response (AID 1117334); format: functional; conditions: COLO 320
[20] = cytotoxicity toward HT-29 cells – cell-based, CellTiter-Glo luminescence, IC50, dose response (AID 1117330); format: functional
[21] = RKO cell viability reduction, dose response, CellTiter-Glo luminescence (AID 1117322); format: functional
[22] = CellTiter-Glo luminescence survival assay, SW480 colon tumor line, concentration-response curve, half-maximal inhibitory concentration (AID 1117338); format: functional
[23] = rise of 4N DNA cells, HeLa – IC50, dose response (AID 1117351); format: functional, cell-based
[24] = IGROV1 cell killing – plate reader, dry powder samples, PAX8 inhibitor project, dose response (AID 743043); format: functional, cell-based; conditions: IGROV-1

**Q.** For `C[C@@H](NC1=C(Nc2ccccc2)C(=O)c2ccccc2C1=O)c1ccccc1`, which AC50 [1] is on record?
**A.** Its AC50 is > 70 µM (inactive).

**Q.** And the AC50 [2]?
**A.** Its AC50 is 48.5 µM (active).

**Q.** Which results are given for `COCCn1c2nc(=O)n(-c3ccccc3)c(=O)c-2nc2ccccc21`?
**A.** EC50 [3]: 5.14 µM (active); AC50 [4]: 12.7 µM (active); EC50 [5]: 95.4 µM (inactive); AC50 [6]: 3.93 µM (active); AC50 [7]: 8.13 µM (active)

**Q.** For `CO[C@H]1CN(C)C(=O)c2cc(NC(=O)Nc3ccc(Cl)c(Cl)c3)ccc2OC[C@@H](C)NC[C@H]1C`, which AC50 [8] is on record?
**A.** The AC50 was > 52 µM (inactive).

**Q.** Which results are given for `C[C@H]1CN([C@@H](C)CO)S(=O)(=O)c2ccc(C#Cc3ccccc3F)cc2O[C@@H]1CN(C)CC1CCOCC1`?
**A.** AC50 [9]: 34.1 µM (active); AC50 [10]: 28.9 µM (active); AC50 [11]: < 0.26 µM (active); AC50 [12]: 10.4 µM (active)

**Q.** With `CCC(Sc1ncnc2sc(C)c(C)c12)C(=O)OC` (stereo not drawn) as the compound, how does the IC50 [13] read?
**A.** The IC50 was > 138 µM (inactive).

**Q.** What about the IC50 [14] of the same compound?
**A.** The IC50 was < 0.023 µM (not active).

**Q.** And the IC50 [15]?
**A.** Its IC50 is 14.1 µM (active).

**Q.** And the IC50 [16]?
**A.** The IC50 was 2.46 µM (active).

**Q.** What does the source list for `COc1ccc2cc1Oc1ccc(cc1)C[C@H]1c3c(cc4c(c3Oc3cc5c(cc3OC)CCN(C)[C@@H]5C2)OCO4)CCN1C` [CEPHARANTHINE]?
**A.** IC50 [17]: 3.57 µM (active); IC50 [18]: > 10 µM (inactive); IC50 [19]: 1.43 µM (active); IC50 [20]: 1.36 µM (active); IC50 [21]: 3.79 µM (active); IC50 [22]: 0.308 µM (active); IC50 [23]: > 10 µM (inactive)

**Q.** Which AC50 [9] does the source give for `C[C@@H]1CCCCO[C@H](CN(C)Cc2ccc(C(F)(F)F)cc2)[C@H](C)CN([C@@H](C)CO)C(=O)c2cc(NS(=O)(=O)c3ccc(F)cc3)ccc2O1` here?
**A.** Its AC50 is 24 µM (active).

**Q.** What about the AC50 [10] of the same compound?
**A.** Its AC50 is 36.9 µM (active).

**Q.** And the AC50 [24]?
**A.** Its AC50 is 37 µM (active).

**Q.** And the AC50 [11]?
**A.** The AC50 was 55.3 µM (active).

**Q.** And the AC50 [12]?
**A.** Its AC50 is 5.17 µM (active).
